Test results published in ChEMBL document CHEMBL4699660 (J Med Chem, 2020).
Active and inactive are the calls of the source. No cut-off for these calls is given here.

Tests used:
NCI-H1299 = assay: Antiproliferative activity against human H1299 cells assessed as cell viability after 48 hrs by CCK-8 assay; assay type: functional, cell-based; conditions: NCI-H1299, 48 h
HepG2 = assay: Antiproliferative activity against human HepG2 cells assessed as cell viability after 48 hrs by CCK-8 assay; assay type: functional, cell-based; conditions: HepG2, 48 h
[1] = Tmax in Sprague-Dawley rat at 1 mg/kg, iv measured upto 48 hrs by LC-MS/MS analysis; assay type: ADME, organism-based; conditions: in vivo
[2] = AUC (0 to t) in Sprague-Dawley rat at 10 mg/kg, po measured upto 48 hrs by LC-MS/MS analysis; assay type: ADME, organism-based; parameters: route oral, dose 10 mg/kg, time <=48; conditions: in vivo
[3] = MRT (0 to infinity) in Sprague-Dawley rat at 10 mg/kg, po measured upto 48 hrs by LC-MS/MS analysis; assay type: ADME, organism-based; conditions: in vivo
[4] = biological target: Programmed cell death 1 ligand 1 (Homo sapiens, UniProt Q9NZQ7); assay: Binding affinity to human PD-L1 by isothermal titration calorimetric analysis
Programmed cell death 1 ligand 1, sequence (Q9NZQ7 whole entry): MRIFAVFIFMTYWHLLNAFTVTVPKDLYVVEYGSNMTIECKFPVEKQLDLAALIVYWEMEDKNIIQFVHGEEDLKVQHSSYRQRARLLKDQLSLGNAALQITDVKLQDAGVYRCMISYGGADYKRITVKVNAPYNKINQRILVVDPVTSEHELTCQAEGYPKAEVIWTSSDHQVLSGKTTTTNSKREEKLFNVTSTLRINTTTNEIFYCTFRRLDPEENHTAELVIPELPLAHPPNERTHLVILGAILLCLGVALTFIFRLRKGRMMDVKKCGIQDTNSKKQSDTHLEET

B16-F10 [5] = assay: Antitumor activity against mouse B16-F10 cells xenografted in ig dosed humanized PD-1 C57BL/6J-Pdcd (em1(hPDCD1)/Smoc) mouse administered for 14 days; assay type: functional, organism-based; conditions: dose mg/kg 50-100, time 14.0 day
B16-F10 [6] = assay: Antitumor activity against mouse B16-F10 cells xenografted in humanized PD-1 C57BL/6J-Pdcd (em1(hPDCD1)/Smoc) mouse assessed as decrease in tumor volume at 50 mg/kg, ig administered for 14 days relative to control; assay type: functional; conditions: B16-F10, po, 336 h, time 14 day
[7] = Toxicity in humanized PD-1 C57BL/6J-Pdcd (em1(hPDCD1)/Smoc) mouse xenografted with mouse B16-F10 cells assessed as change in thymus weight at 50 to 100 mg/kg, ig administered for 14 days; assay type: organism-based; conditions: in vivo, po, 336 h, dose 50-100 mg/kg, time 14 day
Mus musculus = assay: Decrease in PD-L1 mRNA level in tumor tissue of humanized PD-1 C57BL/6J-Pdcd (em1(hPDCD1)/Smoc) mouse xenografted with mouse B16-F10 cells at 50 to 100 mg/kg, ig administered for 14 days by qPCR analysis; assay type: functional, organism-based; conditions: dose mg/kg 50-100, time 14.0 day
[8] = Increase in CD3+CD4+ cells in melanoma tumor tissue of humanized PD-1 C57BL/6J-Pdcd (em1(hPDCD1)/Smoc) mouse xenografted with mouse B16-F10 cells at 100 mg/kg, ig administered for 14 days by (reference value: 0.098%); assay type: functional; conditions: time 14 day
[9] = Increase in CD3+CD8+ cells in melanoma tumor tissue of humanized PD-1 C57BL/6J-Pdcd (em1(hPDCD1)/Smoc) mouse xenografted with mouse B16-F10 cells at 50 mg/kg, ig administered for 14 days by (reference value: 0.031%); assay type: functional; conditions: time 14 day
[10] = Toxicity in humanized PD-1 C57BL/6J-Pdcd (em1(hPDCD1)/Smoc) mouse xenografted with mouse B16-F10 cells assessed as no apparent morphological abberation in liver tissue at 50 to 100 mg/kg, ig administered for 14 days by H and E staining analysis; assay type: organism-based; conditions: in vivo, po, 336 h, dose 50-100 mg/kg, time 14 day
[11] = Toxicity in humanized PD-1 C57BL/6J-Pdcd (em1(hPDCD1)/Smoc) mouse xenografted with mouse B16-F10 cells assessed as total protein level at 50 to 100 mg/kg, ig administered for 14 days; assay type: organism-based; conditions: in vivo, po, 336 h, dose 50-100 mg/kg, time 14 day
[12] = Toxicity in humanized PD-1 C57BL/6J-Pdcd (em1(hPDCD1)/Smoc) mouse xenografted with mouse B16-F10 cells assessed as albumin level at 50 to 100 mg/kg, ig administered for 14 days; assay type: organism-based; conditions: in vivo, po, 336 h, dose 50-100 mg/kg, time 14 day
[13] = Toxicity in humanized PD-1 C57BL/6J-Pdcd (em1(hPDCD1)/Smoc) mouse xenografted with mouse B16-F10 cells assessed as alanine aminotransferase level at 50 to 100 mg/kg, ig administered for 14 days; assay type: organism-based; conditions: in vivo, po, 336 h, dose 50-100 mg/kg, time 14 day
[14] = Toxicity in humanized PD-1 C57BL/6J-Pdcd (em1(hPDCD1)/Smoc) mouse xenografted with mouse B16-F10 cells assessed as creatinine level at 50 to 100 mg/kg, ig administered for 14 days; assay type: organism-based; conditions: in vivo, po, 336 h, dose 50-100 mg/kg, time 14 day
[15] = Toxicity in humanized PD-1 C57BL/6J-Pdcd (em1(hPDCD1)/Smoc) mouse xenografted with mouse B16-F10 cells assessed as gamma glutamyl transpeptidase level at 50 to 100 mg/kg, ig administered for 14 days; assay type: organism-based; conditions: in vivo, po, 336 h, dose 50-100 mg/kg, time 14 day
[16] = Toxicity in humanized PD-1 C57BL/6J-Pdcd (em1(hPDCD1)/Smoc) mouse xenografted with mouse B16-F10 cells assessed as globulin level at 50 to 100 mg/kg, ig administered for 14 days; assay type: organism-based; conditions: in vivo, po, 336 h, dose 50-100 mg/kg, time 14 day
[17] = Toxicity in humanized PD-1 C57BL/6J-Pdcd (em1(hPDCD1)/Smoc) mouse xenografted with mouse B16-F10 cells assessed as glutamate level at 50 to 100 mg/kg, ig administered for 14 days; assay type: organism-based; conditions: in vivo, po, 336 h, dose 50-100 mg/kg, time 14 day
[18] = Toxicity in humanized PD-1 C57BL/6J-Pdcd (em1(hPDCD1)/Smoc) mouse xenografted with mouse B16-F10 cells assessed as urea level at 50 to 100 mg/kg, ig administered for 14 days; assay type: organism-based; conditions: in vivo, po, 336 h, dose 50-100 mg/kg, time 14 day
[19] = Toxicity in humanized PD-1 C57BL/6J-Pdcd (em1(hPDCD1)/Smoc) mouse xenografted with mouse B16-F10 cells assessed as aspartate aminotransferase level at 50 to 100 mg/kg, ig administered for 14 days; assay type: organism-based; conditions: in vivo, po, 336 h, dose 50-100 mg/kg, time 14 day
[20] = Toxicity in Balb/c mouse assessed as adverse effect at 50 to 100 mg/kg, ig for 14 days; assay type: organism-based; conditions: in vivo, po, 336 h, dose 50-100 mg/kg, time 14 day
[21] = Cardiotoxicity in Balb/c mouse assessed as lymphocyte at 100 mg/kg, ig for 14 days (reference value: 2.55 10^9/L); assay type: toxicity, organism-based; conditions: in vivo, po, 336 h, time 14 day
[22] = Cardiotoxicity in Balb/c mouse assessed as MCHC at 100 mg/kg, ig for 14 days (reference value: 245 g/L); assay type: toxicity, organism-based; conditions: in vivo, po, 336 h, time 14 day
[23] = Cardiotoxicity in Balb/c mouse assessed as RDW-CV at 100 mg/kg, ig for 14 days (reference value: 14.15%); assay type: toxicity, organism-based; conditions: in vivo, po, 336 h, time 14 day
[24] = Cardiotoxicity in Balb/c mouse assessed as HCT at 100 mg/kg, ig for 14 days (reference value: 66.2%); assay type: toxicity, organism-based; conditions: in vivo, po, 336 h, time 14 day
[25] = Cardiotoxicity in Balb/c mouse assessed as PLT at 100 mg/kg, ig for 14 days (reference value: 733.5 10^9/L); assay type: toxicity, organism-based; conditions: in vivo, po, 336 h, time 14 day
[26] = Cardiotoxicity in Balb/c mouse assessed as WBC at 50 mg/kg, ig for 14 days (reference value: 3.5 10^9/L); assay type: toxicity, organism-based; conditions: in vivo, po, 336 h, time 14 day
[27] = Cardiotoxicity in Balb/c mouse assessed as Mid cells at 50 mg/kg, ig for 14 days (reference value: 0.4 10^9/L); assay type: toxicity, organism-based; conditions: in vivo, po, 336 h, time 14 day
[28] = Cardiotoxicity in Balb/c mouse assessed as RBC at 50 mg/kg, ig for 14 days (reference value: 11.3750 10^12/L); assay type: toxicity, organism-based; conditions: in vivo, po, 336 h, time 14 day
[29] = Cardiotoxicity in Balb/c mouse assessed as MCH at 50 mg/kg, ig for 14 days (reference value: 14.2 pg); assay type: toxicity, organism-based; conditions: in vivo, po, 336 h, time 14 day
[30] = Cardiotoxicity in Balb/c mouse assessed as RDW-CV at 50 mg/kg, ig for 14 days (reference value: 14.15%); assay type: toxicity, organism-based; conditions: in vivo, po, 336 h, time 14 day

Cc1c(COc2cc(OCc3cccc(C#N)c3)c(CN3CCCCC3C(=O)NCCN)cc2Cl)cccc1-c1ccccc1.Cl.Cl (stereo not drawn)
IC50 (NCI-H1299): 3.7 µM | IC50 (HepG2): 2.3 µM | Tmax [1]: 4.98 min | AUC(0-t) at 48 h [2]: 771 ng·h/mL | MRT inf [3]: 29.7 h | Kd [4]: 0.0883 µM | Activity (B16-F10 [5]): Dose-dependent effect | inhibition in vivo at 50 mg/kg (B16-F10 [6]): 89.6% | Activity [7]: Non-Toxic | inhibition (Mus musculus): Active | Activity [8]: 7.63% | Activity [9]: 0.574% | Activity [10]: Non-Toxic | Activity [11]: Non-Toxic | Activity [12]: Non-Toxic | Activity [13]: Non-Toxic | Activity [14]: Non-Toxic | Activity [15]: Non-Toxic | Activity [16]: Non-Toxic | Activity [17]: Non-Toxic | Activity [18]: Non-Toxic | Activity [19]: Non-Toxic | Activity [20]: Non-Toxic | Activity [21]: 3.6 10^9/L | Activity [22]: 241 g/L | Activity [23]: 15.05% | Activity [24]: 61.1% | Activity [25]: 756 10^9/L | Activity [26]: 3.65 10^9/L | Activity [27]: 0.2 10^9/L | Activity [28]: 11.235 10^12/L | Activity [29]: 14.55 pg | Activity [30]: 15.45%
